In patent US20080312322A1, “Organic Compounds” (priority 2005, published 2008):

Assays:
CRTh2 receptor [1] = target: T1, CRTh2 receptor (Homo sapiens, UniProt Q9Y5Y4); assay: CRTh2 cAMP functional assay; format: cell-based; parameters: expressed in transfected cells; host or cells: CHO cells; settings: CHO cells stably transfected with CRTh2; 10 nM PGD2 and 5 μM forskolin; cAMP Alphascreen
T1 sequence (Q9Y5Y4 1-395): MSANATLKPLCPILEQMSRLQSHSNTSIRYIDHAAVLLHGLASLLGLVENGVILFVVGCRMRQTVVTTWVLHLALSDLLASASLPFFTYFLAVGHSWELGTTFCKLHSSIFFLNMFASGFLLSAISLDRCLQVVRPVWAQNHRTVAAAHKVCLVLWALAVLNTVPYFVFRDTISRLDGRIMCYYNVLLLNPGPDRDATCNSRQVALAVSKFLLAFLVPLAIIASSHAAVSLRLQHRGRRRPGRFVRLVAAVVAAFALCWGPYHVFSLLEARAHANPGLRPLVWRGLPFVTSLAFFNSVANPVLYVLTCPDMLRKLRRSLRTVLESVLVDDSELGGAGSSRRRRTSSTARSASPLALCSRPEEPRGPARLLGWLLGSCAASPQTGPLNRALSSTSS
Procedure: CRTh2 cAMP Assay Protocol
Test compounds are prepared in assay stimulation buffer/DMSO and 5 μL/well is added to an assay plate (384-well white opti-plate).
CHO cells stably transfected with the CRTh2 receptor are prepared (dissociated from a cell culture flask and washed in PBS) to a concentration of 4×10^6/mL in assay stimulation buffer and added to the assay plate (10 μL/well).
The assay plate is incubated at room temperature on a shaker for 15 minutes.
A mix of agonist (10 nM PGD2) and 5 μM forskolin is prepared in assay stimulation buffer and added to the assay plate (5 μL/well).
In addition, a cAMP standard is serially diluted in assay stimulation buffer and added to separate empty wells on the assay plate (20 μL/well).
The assay plate is incubated at room temperature on a shaker for 60 minutes.
A cell lysis mix (lysis buffer containing Alphascreen™ donor beads and biotinylated cAMP) is prepared under darkened conditions 60 minutes prior to addition. Alphascreen™ acceptor beads are added to the lysis mix after 60 minutes. […]
The assay plate is sealed with Topseal-S™ and incubated in the dark at room temperature on a shaker for 45 minutes. The plate is then counted using a Packard Fusion™ instrument.
The resulting counts per minute are converted to nM cAMP by using the prepared cAMP standard curve. IC50 values are then determined using Prism™ software.

CRTh2 receptor [2] = target: T1, CRTh2 receptor; assay: Scintillation Proximity Assay (SPA) binding assay, 3H PGD2; parameters: expressed in transfected cells; host or cells: K562 or CHO cells, membranes; settings: membranes from K562 or CHO cells stably transfected with human CRTh2; 3H prostaglandin D2
Procedure: Scintillation Proximity Assay (SPA) protocol
Membranes are prepared from K562 or Chinese Hamster Ovary (CHO) cells stably transfected with human CRTh2 receptors.
The assay is performed in a 96-well U-bottomed polypropylene plate in a final volume of 100 μL and the components of the assay are added as follows: test compound in DMSO/assay buffer (25 μL), ^3H prostaglandin D2 (PGD2) (25 μL) and CRTh2 membrane fragments (50 μL). The assay is incubated at ambient temperature with shaking for 60 minutes, then harvested on to filter plates. The plate is dried for 2 hours, prior to addition of Micro-Scint 20M (50 μL) and sealing with TopSeal-S™. Plates are then counted using a Packard Top Count instrument, each well being counted for 20 minutes. Ki values are determined using Sigma Plot™ software.

Q: Which IC50 (CRTh2 receptor [1]) does the source give for `CCOC(=O)COc1ccc(Cl)cc1Cc1cc(Cl)ccc1OCC(=O)O` [Example 2, [4-chloro-2-(5-chloro-2-ethoxycarbonylmethoxy-benzyl)-phenoxy]-acetic acid] here?
A: Its IC50 is 68 nM.

Q: With `CC(C)(Oc1ccc(Cl)cc1Cc1cc(Cl)ccc1OCC(=O)O)C(=O)O` [Example 13, 2-[2-(2-carboxymethoxy-5-chloro-benzyl)-4-chloro-phenoxy]-2-methyl-propionic acid] as the molecule, how does the IC50 (CRTh2 receptor [1]) read?
A: The IC50 was 52 nM.

Q: What about the Ki (CRTh2 receptor [2]) of the same molecule?
A: Its Ki is 58 nM.
